Read-outs that look alike come from different tables or passages of the source.
Key:
[1] = tested on: T-Rex 293 cell line SC3 cells having increased expression of androgen receptor protein due to exposure to doxycycline; experiment: Cellular growth inhibition assay, T-Rex 293 SC3 cells with doxycycline (CellTiter-Glo, 72 hours); assay type: cell-based; details: T-Rex 293 SC3 cells with increased androgen receptor expression due to doxycycline (10 ng/mL)
Procedure, shortened: (§1)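 Growth inhibition is measured in an inducible AR-expressing T-Rex 293 clone, SC3, cultured with or without 10 ng/mL doxycycline in hormone-depleted medium. Test compounds are applied for 72 hours. GI50 values derive from CellTiter-Glo 2.0 signal fitted by four-parameter regression.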

VCaP cells = experiment: Cellular growth inhibition assay for VCaP cells (CellTiter-Glo, 72 hours); assay type: cell-based, human
Procedure, shortened: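 Luminescent viability signal after 72 h of compound exposure gave GI50 values by four-parameter nonlinear regression. Compounds were added in 0.5% DMSO to cells plated 24 h earlier at 5000/well in DMEM containing 10% FBS.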

T47D cells = experiment: Cellular growth inhibition assay for T47D cells (CellTiter-Glo, 72 hours); assay type: cell-based, human; details: 72 hours treatment
Procedure, shortened: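 Cells are plated at 3000/well and allowed 24 h before treatment. Test compound in medium containing 0.5% DMSO is then added, with DMSO-only wells as negative control, and plates are incubated 72 h at 37 °C. ATP luminescence (CellTiter-Glo 2.0) is then fitted to four parameters to derive GI50.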

[2] = tested on: T-Rex 293 cell line SC3 cells lacking increased expression of androgen receptor protein; experiment: Cellular growth inhibition assay, T-Rex 293 SC3 cells without doxycycline (CellTiter-Glo, 72 hours); assay type: cell-based; details: T-Rex 293 cell line SC3 cells not exposed to doxycycline (lacking increased androgen receptor expression)
Procedure, shortened: as §1

SMILES	GI50 ([1]; 72 h)	GI50 (VCaP cells; Homo sapiens, VCaP, 72 h)	GI50 (T47D cells; Homo sapiens, T47D, 72 h)	GI50 ([2]; 72 h)	GI50 [1]	GI50 (VCaP cells)	GI50 (T47D cells)	GI50 [2]
Cc1sc2c(c1C)C(c1ccc(CCO[C@@H]3CCCN(c4ccc(C(=O)N[C@H]5CC[C@H](Oc6ccc(C#N)c(Cl)c6)CC5)nn4)C3)cc1)=N[C@@H](C)c1nnc(C)n1-2 [I-324]	< 500 nM	> 3000 nM	1500 to 3000 nM	> 3000 nM				
Cc1sc2c(c1C)C(c1ccc(N3CCC(C(=O)NCc4ccc(C(=O)N[C@H]5CC[C@H](Oc6ccc(C#N)c(Cl)c6)CC5)nn4)CC3)cc1)=N[C@@H](Cc1ncco1)c1nnc(C)n1-2 [I-292]	< 500 nM	< 500 nM	< 500 nM	500 to 1500 nM				
Cc1sc2c(c1C)C(c1ccc(OC3CC4(CCN(c5ccc(C(=O)N[C@H]6CC[C@H](Oc7ccc(C#N)c(Cl)c7)CC6)nn5)CC4)C3)cc1)=N[C@@H](Cc1ncco1)c1nnc(C)n1-2 [I-79]	< 500 nM	< 500 nM	< 500 nM	< 500 nM				
Cc1sc2c(c1C)C(c1ccc(O[C@@H]3CC[C@@]4(CCCN(c5ccc(C(=O)N[C@H]6CC[C@H](Oc7ccc(C#N)c(Cl)c7)CC6)nn5)C4)C3)cn1)=N[C@@H](Cc1ncco1)c1nnc(C)n1-2 [I-362]	< 500 nM	< 500 nM	< 500 nM	< 500 nM				
Cc1sc2c(c1C)C(c1ccc(CCO[C@@H]3CCCN(c4ccc(C(=O)N[C@H]5CC[C@H](Oc6ccc(C#N)c(Cl)c6)CC5)nn4)C3)cc1)=N[C@@H](Cc1ncco1)c1nnc(C)n1-2 [I-278]	< 500 nM	< 500 nM	< 500 nM	> 3000 nM				
Cc1sc2c(c1C)C(c1ccc(C#C[C@H]3C[C@@]4(CCCN(c5ccc(C(=O)N[C@H]6CC[C@H](Oc7ccc(C#N)c(Cl)c7)CC6)nn5)C4)C3)cc1)=N[C@@H](C)c1nnc(C)n1-2 [I-336]	< 500 nM	< 500 nM	< 500 nM	< 500 nM				
Cc1sc2c(c1C)C(c1ccc(N3CC(C4CC5(C4)CN(c4ccc(C(=O)N[C@H]6CC[C@H](Oc7ccc(C#N)c(Cl)c7)CC6)nn4)C5)C3)cc1)=N[C@@H](Cc1ncco1)c1nnc(C)n1-2 [I-387]	< 500 nM	< 500 nM	< 500 nM	< 500 nM				
Cc1sc2c(c1C)C(c1ccc(C(=O)N3CCN(C(=O)c4ccc(C(=O)N[C@H]5CC[C@H](Oc6ccc(C#N)c(Cl)c6)CC5)nn4)CC3)cc1)=N[C@H](Cc1ncco1)c1nnc(C)n1-2 [I-239]	< 500 nM	1500 to 3000 nM	> 3000 nM	> 3000 nM				
Cc1sc2c(c1C)C(c1ccc(CC[C@H]3C[C@]4(CCCN(c5ccc(C(=O)N[C@H]6CC[C@H](Oc7ccc(C#N)c(Cl)c7)CC6)nn5)C4)C3)cc1)=N[C@@H](C)c1nnc(C)n1-2 [I-327]					< 500 nM	> 3000 nM	1500 to 3000 nM	> 3000 nM
Cc1sc2c(c1C)C(c1ccc(C#C[C@H]3C[C@]4(CCCN(c5ccc(C(=O)N[C@H]6CC[C@H](Oc7ccc(C#N)c(Cl)c7)CC6)nn5)C4)C3)cc1)=N[C@@H](C)c1nnc(C)n1-2 [I-337]	< 500 nM	< 500 nM	500 to 1500 nM	500 to 1500 nM				
Cc1sc2c(c1C)C(c1ccc(C[C@H]3CCC4CN(c5ccc(C(=O)N[C@H]6CC[C@H](Oc7ccc(C#N)c(Cl)c7)CC6)nn5)CCN4C3)cc1)=N[C@H](Cc1ncco1)c1nnc(C)n1-2 (stereo partly drawn) [I-260]	< 500 nM	< 500 nM	< 500 nM	< 500 nM				
Cc1sc2c(c1C)C(c1ccc(CN(C)C(=O)NCc3ccc(C(=O)N[C@H]4CC[C@H](Oc5ccc(C#N)c(Cl)c5)CC4)nn3)cc1)=N[C@@H](Cc1ncco1)c1nnc(C)n1-2 [I-318]	< 500 nM	< 500 nM	> 3000 nM	> 3000 nM				
CCNC(=O)C[C@@H]1N=C(c2ccc(N(C)CCN3CCN(c4ccc(C(=O)N[C@H]5CC[C@H](Oc6ccc(C#N)c(Cl)c6)CC5)nn4)CC3)cc2)c2c(sc(C)c2C)-n2c(C)nnc21 [I-35]	< 500 nM	< 500 nM	500 to 1500 nM	500 to 1500 nM				
CC1=NN=C2C1c1sc(C)c(C)c1C(c1ccc(C#CC3C4CN(c5ccc(C(=O)N[C@H]6CC[C@H](Oc7ccc(C#N)c(Cl)c7)CC6)nn5)CC34)cc1)=N[C@@H]2Cc1ncco1 (stereo partly drawn) [I-408]	< 500 nM	< 500 nM	< 500 nM	< 500 nM				
Cc1sc2c(c1C)C(c1ccc(CC(=O)NCCc3ccc(C(=O)N[C@H]4CC[C@H](Oc5ccc(C#N)c(Cl)c5)CC4)nn3)cc1)=N[C@@H](Cc1ncco1)c1nnc(C)n1-2 [I-317]	< 500 nM	< 500 nM	< 500 nM	500 to 1500 nM				
